# Earlier results, collected in paper PMC2593936 (Bioorganic & medicinal chemistry, 2008).
# Marks after values point to notes of the source that are not given here.
# Biological target: T1, human A3AR (Homo sapiens, UniProt P0DMS8)
# T1 sequence (P0DMS8 1-318): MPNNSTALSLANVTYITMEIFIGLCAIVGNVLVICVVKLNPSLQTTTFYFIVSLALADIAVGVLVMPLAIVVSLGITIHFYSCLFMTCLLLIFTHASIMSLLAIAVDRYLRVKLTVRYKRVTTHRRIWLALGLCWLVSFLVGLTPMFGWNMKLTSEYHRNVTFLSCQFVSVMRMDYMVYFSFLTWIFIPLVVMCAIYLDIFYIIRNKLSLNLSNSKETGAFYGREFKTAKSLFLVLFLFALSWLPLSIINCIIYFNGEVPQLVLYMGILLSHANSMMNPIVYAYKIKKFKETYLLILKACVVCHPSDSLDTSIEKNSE
# Conditions: relative to full agonist NECA at 10 μM
smiles,measurement,value
CNC(=O)[C@@]12C[C@@H]1[C@@H](n1cnc3c(NCc4cccc(I)c4)nc(Cl)nc31)[C@H](O)[C@@H]2O [Compound 7],%Efficacy A3,100 ^c %
